Laboratory results taken from patent US20240358734A1, “DISCOVERY OF NOVEL TRPV1 CHANNEL BLOCKERS BY HIGH-THROUGHPUT SCREENING OF MARINE NATURAL PRODUCTS” (The Hong Kong University of Science and Technology, priority 2023, published 2024).
Entries after “also recorded” stand apart in the source; their conditions may differ.

How the values were obtained:
human TRPV1 = target: T1, human TRPV1 (Homo sapiens, UniProt Q8NER1); test: High-throughput FM4-64 dye-uptake assay in HEK293 cells transfected with hTRPV1-pIRES-eGFP; assay type: cell-based; details: for inhibitory effect on TRPV1 (relative n2/n1 ratio compared to vehicle control): screening, 5 μM FM4-64 dye and 100 μg/ml test compounds for 3 minutes, vs DMSO; for IC50: 1 μM capsaicin, 5 μM FM4-64, 3-minute incubation, cell-based system; for mean n2/n1 ratio: HEK293 cells transfected with human TRPV1, 96-well plate, groups incubated with drug, compared to capsaicin alone
T1 construct: expressed in transfected cells; host or cells: HEK293 (HEK293T) cells
Protocol: To screen potential modulators of TRPV1, a high-throughput screening system based on FM4-64 dye uptake was established using HEK293 cells transfected with hTRPV1-pIRES-eGFP and cultured in 96-well plates. The cells are incubation with 5 μM FM4-64 dye and 100 μg/ml test compounds for 3 minutes, washed, imaged using Zeiss Celldiscoverer 7, and analyzed using Image J (FIG. 2A). The number of GFP positive cells which is an indicator of the number of TRPV1 expressed cells, is calculated as n1 and the number of cells which are both GFP positive and dye uptake positive is calculated as n2 (FIG. 2B). The ratio (n2/n1) is a functional indicator of TRPV1 channel activity.
The performance of cC and cF with capsaicin and capsazepine, with HEK293 cells transfected with human TRPV1 and cultured on a 96-well plate are compared by the n2/n1 ratio of the groups incubated with cC and cF to those incubated with capsaicin alone and capsazepine (FIG. 3B).
The assay involves mixing 1 μM of capsaicin with varying concentrations of cC and 5 μM of FM4-64, and the mixture is added to each well for a 3-minute incubation.
Transfected HEK293 cells in a 96-well plate were divided into 8 groups, each containing 12 wells. 10-11 wells of each group were set as experimental groups in which cells were incubated with compound mixtures. 1-2 wells of each group were set as control groups in which cells were incubated with control solution A or B. One group was operated simultaneously to reduce the difference between wells. Cells in DMEM were washed with CaCl2-HBSS buffer once to remove the remnant medium. Subsequently, cells were incubated with the compound mixture or control solution for 2-3 min at RT. After FM4-64 incubation, cells were washed with CaCl2-HBSS buffer thrice to remove FM4-64 residuals. A group of cells was subjected to Zeiss Celldiscoverer 7 for fluorescent imaging.
To separate GFP and FM4-64 fluorescent dye, we used an LED light source at 470 nm to excite the GFP channel and light at 567 nm to excite the FM4-64 channel. 5× objective (Plan Apo, dry, autocorrect, NA 0.35), Orca camera (Orca Flash 4.0 v3), CO2 Module S1 incubation system, and Zenblue software were used for image recording. Each image comprises a GFP channel, FM4-64 channel, and bright field channel. And 4 non-overlapping images were taken for each well using the Tile function at Zenblue.
All images were analysed with ImageJ software. The same threshold would be applied to all the images in the same experiment group to select GFP-positive and dye uptake-positive cells. Cell number was calculated by the “Analyze particle” function in ImageJ. GFP-positive and dye uptake-positive cells were selected using the “AND” function in the image calculator. The number of GFP-positive cells (TRPV1 expressed cells) would be calculated as N1, and the number of cells that are both GFP positive and dye uptake positive would be calculated as N2. The ratio of […] represents the percentage of TRPV1 expressed cells that uptake FM4-64 fluorescent dye and would be used to analyse TRPV1's function.

TRPV1 channel (hTRPV1) = target: T2, TRPV1 channel (hTRPV1) (Homo sapiens, UniProt Q8NER1); test: Excised inside-out patch-clamp of 3T3 cells transfected with hTRPV1-IRES-EGFP; assay type: cell-based; details: for inhibition of TRPV1 channels in patch-clamp macroscopic current: 10 nM capsaicin activation followed by 20 μM drug
T2 construct: expressed in transfected cells; host or cells: 3T3 cells
From the text: A cell-based high-throughput drug screening method identifies potential TRPV1 inhibitors using the FM4-64 dye-uptake assay though the assay cannot conclusively distinguish the specific mechanism of blockage as numerous factors, such as other channels, pinocytosis, and drug-induced membrane potential alteration via pore-forming, can contribute to changes in FM4-64 dye uptake. A high-resolution patch clamp assays using an excised inside-out recording configuration allows investigation of the potential inhibitory effect of cC and cF on TRPV1, where changes in the patch-clamp macroscopic current before and after drug application indicates drug effectiveness.
3T3 cells were recorded using excised inside-out voltage clamp. Patch electrodes with a resistance of 4 MΩ±1.1 MΩ were pulled on a glass pipette puller (DMZ Zeitz-Puller). 3T3 cells were first transferred to a patch container to minimize the use of drugs and transfected with hTRPV1-IRES-EGFP. Immediately before assay, the cell medium was changed to PBS as well as the pipette medium. The dish was connected to the ground electrode via the salt bridge. Glass pipette filled with PBS was inserted into the patch electrode. A positive pressure of around 40 mmHg was applied to the pipette and soaked into the cell medium. The offset was tuned to near 0 pA when the holding potential was 0 mV. Pipette was moved to the cell, showing green-fluorescent and barely attached to the cell membrane. Then, removing the positive pressure in the pipette and changing the holding potential to −80 mV, forming a tight seal between the cell membrane and the pipette. The seal resistance should be >=1GQ. The sealed membrane was excised to form a patch in an inside-out configuration. The recording started with a positive holding potential.
The patch was activated by 10 nM of capsaicin to activate TRPV1 channels fully. After full activation, 20 μM of drugs (cC) was applied to test for their ability of TRPV1 inhibition. […]
Traces were collected with the pClamp10 software suite, and the patch-clamp macroscopic current was recorded. […]

[1] = test system: capsaicin-/TRPV1-induced pain sensation; test: Capsaicin-induced pain-sensation assay (paw-licking) in mice; assay type: in vivo, mice (C57B/6J); details: for mean licking time: drug mixed with capsaicin injected into right hind paw, 5 minutes observation
Protocol: The total time spent paw-licking, a typical nociception behaviour in mice, was recorded as an indicator of TRPV1 activation and compared with a positive control group injected with capsaicin alone. The potency of the injected drugs is related to the reduction of licking time.
The mice used were 4-6 weeks old C57B/6J provided by APCF in HKUST. All animal procedures were approved by the University Committee on Research Practices of the Hong Kong University of Science and Technology (Ethics protocol number: 2016074).
Capsaicin-induced pain-sensation assays in mice were performed where 10 μL of capsaicin (300 μM) or solvent control was injected into the top of the hind paw by using a fine (30-G) needle; capsaicin was dissolved in 0.3% ethanol and 3% (v/v) dimethyl sulfoxide (DMSO). The mice were wrapped gently in the investigator's hand and maintained on their back, with their snout pointing toward the small finger of the investigator; in this position, the mice remained unagitated during the injection. Mouse behavior was recorded using a digital camera (GoPro5).
The observation cage was made with the transparent large cage liner from APCF with bedding and food at the bottom. Mice were placed in the observation cage for 10 minutes at least 1 hour before the experiment was conducted to reduce the stress bought on by an unfamiliar environment. During the experiment, mice were captured by the left hand using the index finger and thumb to hold their neck. Then gradually pick up the mice and use the little finger to anchor its tail, such that its right hind paw will step on the ring finger or middle finger. Drugs were prepared in a 1.5 mL test tube. For the control group, 1 mM stock Capsaicin in DMSO is diluted to 100 μM using PBS. For the testing group, drugs originally dissolved in DMSO were diluted to the desired concentration in addition to capsaicin.
The injection was performed by shaking and spinning the drug-containing test tube for an even concentration of drug. A BD Ultra-fine 6 mm needle was used to suck out the 10 μL of drug from the needle. After removing excess air bubbles, 10 μL of the drug was injected into the captured mice's back of the right hind paw. The needle was removed slowly to inhibit blood and drug from leaking from the wound. After injection, mice were placed in the observation cage for 5 minutes to record the pain behavior. Video was filmed using a camera with the configuration of HD 30 fps. The environmental noise, light, and temperature are constant throughout the record. The mice's behavior was identified by experienced individuals who mapped pain behavior in seconds throughout the 5 minutes.

T1 sequence (Q8NER1 whole entry): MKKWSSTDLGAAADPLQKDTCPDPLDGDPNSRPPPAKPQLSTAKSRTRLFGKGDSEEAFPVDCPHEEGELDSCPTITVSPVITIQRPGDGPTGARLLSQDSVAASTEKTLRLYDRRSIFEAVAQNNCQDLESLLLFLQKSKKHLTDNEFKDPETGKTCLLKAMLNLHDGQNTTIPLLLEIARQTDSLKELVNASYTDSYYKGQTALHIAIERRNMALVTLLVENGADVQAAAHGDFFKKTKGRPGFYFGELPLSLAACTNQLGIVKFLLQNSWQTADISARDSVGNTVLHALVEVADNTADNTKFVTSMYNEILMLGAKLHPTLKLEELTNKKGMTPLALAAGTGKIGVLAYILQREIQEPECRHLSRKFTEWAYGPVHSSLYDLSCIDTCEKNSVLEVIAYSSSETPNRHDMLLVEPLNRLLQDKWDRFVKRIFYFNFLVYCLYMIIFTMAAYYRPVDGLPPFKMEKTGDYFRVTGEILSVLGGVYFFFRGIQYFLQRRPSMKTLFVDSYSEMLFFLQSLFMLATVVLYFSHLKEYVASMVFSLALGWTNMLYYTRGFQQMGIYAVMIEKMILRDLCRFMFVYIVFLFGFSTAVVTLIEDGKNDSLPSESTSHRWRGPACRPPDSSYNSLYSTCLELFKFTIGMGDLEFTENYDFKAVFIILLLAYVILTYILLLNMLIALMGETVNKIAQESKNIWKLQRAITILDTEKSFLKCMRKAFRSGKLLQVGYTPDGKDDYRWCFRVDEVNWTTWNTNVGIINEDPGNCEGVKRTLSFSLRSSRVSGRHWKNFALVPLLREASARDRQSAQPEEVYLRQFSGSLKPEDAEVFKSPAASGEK
T2 sequence (Q8NER1 whole entry): as above

Row | Molecule | inhibitory effect on TRPV1 (relative n2/n1 ratio compared to vehicle control) (human TRPV1) | inhibition of TRPV1 channels in patch-clamp macroscopic current (TRPV1 channel (hTRPV1)) | IC50 (human TRPV1) [nM] | mean n2/n1 ratio (human TRPV1) | mean licking time [1] [s] | further results
1 | CC(=O)Cc1cc2c(c(O)c1C(=O)O)-c1c(c(O)c3oc4c(O[C@@H]5OC(C(=O)O)=C[C@H](O)[C@H]5O)cccc4c(=O)c3c1O)CC2 [cA, chrexanthomycin A] | inhibitory effects on TRPV1 |  |  |  |  | 
2 | COc1c2c(c(O)c3c(=O)c4cccc(O[C@@H]5OC(C(=O)O)=C[C@H](O)[C@H]5O)c4oc13)-c1c(cc(CC(C)=O)c(C(=O)O)c1O)CC2 [cB, chrexanthomycin B] | inhibitory effects on TRPV1 |  |  |  |  | 
3 | C[C@@]1(O)Cc2cc3c(c(O)c2C(=O)O1)-c1c(c(O)c(O)c2c(=O)c4cccc(O[C@@H]5OC(C(=O)O)=C[C@H](O)[C@H]5O)c4oc12)CC3 [cF, chrexanthomycin F] | inhibitory effects on TRPV1 | effectively inhibit TRPV1 channels | > 2000 | 0.068 |  | 
4 | COc1cc(CNC(=O)CCCC/C=C/C(C)C)ccc1O [capsaicin, reference compound] |  |  |  |  |  | mean licking time, capsaicin alone group ([1]; capsaicin alone injected into right hind paw (positive control)): over 50 seconds; mean n2/n1 ratio, capsaicin group (human TRPV1; capsaicin alone, HEK293 cells transfected with human TRPV1): 0.254
5 | Oc1cc2c(cc1O)CN(C(=S)NCCc1ccc(Cl)cc1)CCC2 [capsazepine, reference compound] |  |  |  | 0.0667 | 18 | 
6 | chrexanthomycin C [cC] | inhibitory effects on TRPV1; also recorded: lowest relative n2/n1 ratio | effectively inhibit TRPV1 channels | 750 to 1000 | 0.0307 | 19 | average relative macroscopic current after drug addition (TRPV1 channel (hTRPV1); fully capsaicin-activated state (10 nM capsaicin), 20 μM drug, inside-out patch): 0.285; efficacy in blocking capsaicin-induced pain sensation relative to capsazepine ([1]; mouse model, ANOVA with post hoc test): as effective as capsazepine
